Values of other authors, collected in patent US4722394A, “Determining residual oil saturation by radioactively analyzing injected CO2 and base-generating tracer-providing solution” (Shell Oil Company, priority 1986, dated 1988).

- distribution coefficient, Ki (ratio of concentration of tracer in the oil phase to that in the water phase): about 2
Compound: O=C=O [CO2, carbon dioxide]
